SMILES strings stand for the structures.

Results on 6 molecules are retold here after US9249125B2, “Pyrazole derivatives as p38 MAP inhibitors” (RESPIVERT LIMITED, priority 2012, dated 2016).

One data set has as its system d-U937 cells. Briefly: Cell viability: MTT assay. The class given is cell-based, human. To be noted: 1 μg/mL. Summed up: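 Differentiated U937 cells were exposed to compound at 1 or 10 μg/mL either 4 h in 5% FCS RPMI1640 or 24 h in 10% FCS RPMI1640, then given MTT for 1 h, DMSO-solubilised and read at 550 nm. Percent viability loss versus 0.5% DMSO vehicle; apparent gains appear negative.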
For orientation: Formazan colour is commonly taken as a measure of viable cells.

Data set [1] has as its system Poly I:C-induced ICAM-1 expression in BEAS2B cells. Briefly: Poly I:C-induced ICAM-1 expression in BEAS2B cells. The data set is classed as cell-based. Conditions: Homo sapiens, BEAS-2B, read-out: Poly IC induced ICAM1 in BEAS2B IC50. Summed up:
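BEAS2B human bronchial epithelial cells pre-incubated with compound for 2 hr, then transfected with 1 μg/mL poly I:C plus Oligofectamine. At 18 hr, surface ICAM-1 measured by cell-based ELISA (HRP, OD450–655). Signal corrected for cell number by crystal violet OD595.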

For a further data set, the target named is p38 MAPKα (Homo sapiens (Human), UniProt Q16539). Briefly: p38 MAPKα enzyme inhibition (FRET, Z-LYTE). The class given is biochemical.
Sequence of p38 MAPKα (Q16539 whole entry): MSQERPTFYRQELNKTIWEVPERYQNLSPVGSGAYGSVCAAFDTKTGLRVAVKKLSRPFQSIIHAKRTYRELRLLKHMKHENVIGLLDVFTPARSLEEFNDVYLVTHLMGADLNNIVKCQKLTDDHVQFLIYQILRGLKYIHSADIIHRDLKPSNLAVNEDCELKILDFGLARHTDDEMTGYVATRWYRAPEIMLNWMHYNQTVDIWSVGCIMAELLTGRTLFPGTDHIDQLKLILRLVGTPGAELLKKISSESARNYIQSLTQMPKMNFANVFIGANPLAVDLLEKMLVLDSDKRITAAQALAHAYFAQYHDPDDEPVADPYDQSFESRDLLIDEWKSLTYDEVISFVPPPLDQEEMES
Data set [2] relates to LPS-induced TNFα release in d-U937 cells. Briefly: LPS-induced TNFα release in d-U937 cells. The data set is classed as cell-based. To be noted: Homo sapiens, dU937, relative to 10 μg/mL BIRB796, read-out: LPS Induced Release of Cytokine in d-937 Cells TNFα REC50. The method, boiled down: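 First, U937 monocytes undergo PMA treatment (100 ng/mL) for 48 to 72 hr to become macrophage-type. Next, compound at final concentrations is added for 2 hr, followed by LPS at 0.1 μg/mL for 4 hr. Finally, cytokines in the supernatant are quantified by ELISA against vehicle-treated cells.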

The target in another data set is GSK3α (Homo sapiens (Human), UniProt P49840). Briefly: GSK 3α enzyme inhibition (FRET, Z-LYTE). The class given is biochemical. The method, boiled down: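 GSK3α (500 ng/mL stock) was preincubated 2 hr at RT with compound (4 to 0.004 μg/mL stocks), then FRET peptide (8 μM stock) and ATP (40 μM stock) added for 1 hr. Protease development for 1 hr cleaved unphosphorylated peptide; coumarin/fluorescein emission ratio reported phosphorylation.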
Sequence of GSK3α (P49840 whole entry): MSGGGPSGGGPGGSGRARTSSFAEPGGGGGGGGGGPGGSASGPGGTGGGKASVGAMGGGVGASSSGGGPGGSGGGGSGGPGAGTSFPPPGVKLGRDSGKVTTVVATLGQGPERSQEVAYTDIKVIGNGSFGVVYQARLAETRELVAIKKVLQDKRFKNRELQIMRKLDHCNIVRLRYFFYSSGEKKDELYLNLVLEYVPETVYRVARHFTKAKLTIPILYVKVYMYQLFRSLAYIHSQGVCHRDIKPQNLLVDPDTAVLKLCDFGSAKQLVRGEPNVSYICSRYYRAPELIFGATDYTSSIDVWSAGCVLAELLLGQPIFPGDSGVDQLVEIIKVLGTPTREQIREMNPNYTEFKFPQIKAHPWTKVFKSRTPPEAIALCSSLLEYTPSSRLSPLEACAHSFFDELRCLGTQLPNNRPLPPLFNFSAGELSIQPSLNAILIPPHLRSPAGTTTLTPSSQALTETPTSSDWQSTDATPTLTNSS

Data set [3] relates to LPS-induced IL-8 release in d-U937 cells. Briefly: LPS-induced IL-8 release in d-U937 cells. The class given is cell-based. Conditions: Homo sapiens, dU937, read-out: LPS Induced Release of Cytokine in d-937 Cells IL-8 IC50. The method, boiled down:
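PMA-differentiated (100 ng/mL, 48–72 hr) U937 cells pre-incubated with compound 2 hr, then stimulated with LPS (0.1 μg/mL, E. coli O111:B4) for 4 hr. Supernatant TNFα and IL-8 measured by sandwich ELISA; inhibition versus vehicle control, REC50 from concentration-response curve.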

The subject of data set [4] is LPS-induced airways neutrophilia in mice. Briefly: LPS-induced neutrophil accumulation in mice. To be noted: Test Substance at 0.2 mg/mL, intra tracheal, dosed 8 hr pre-LPS challenge. The class given is in vivo. On the procedure:
Non-fasted Balb/c mice are dosed by the intra tracheal route with either vehicle, or the test substance at the indicated times (within the range 2-8 hr) before stimulation of the inflammatory response by application of an LPS challenge. At T=0, mice are placed into an exposure chamber and exposed to LPS (7.0 mL, 0.5 mg/mL solution in PBS) for 30 min). After a further 8 hr the animals are anesthetized, their tracheas cannulated and BALF extracted by infusing and then withdrawing from their lungs 1.0 mL of PBS via the tracheal catheter. Total and differential white cell counts in the BALF samples are measured using a Neubaur haemocytometer. Cytospin smears of the BALF samples are prepared by centrifugation at 200 rpm for 5 min at RT and stained using a DiffQuik stain system (Dade Behring). Cells are counted using oil immersion microscopy. Data for neutrophil numbers in BAL are shown as mean±S.E.M. (standard error of the mean). The percentage inhibition of neutrophil accumulation is calculated for each treatment relative to vehicle treatment.

For a further data set, the target named is cSrc (Homo sapiens (Human), UniProt P12931). Briefly: c-Src enzyme inhibition (FRET, Z-LYTE). The class given is biochemical. Summed up: (§1)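 Z-LYTE FRET kinase assay: enzyme (3000 or 2000 ng/mL stock, respectively) preincubated 2 h at RT with compound (4–0.004 μg/mL stocks), then FRET peptide plus ATP (800 μM stock for c-Src, 60 μM for Syk) added for 1 h. Protease development 1 h; phosphorylation from coumarin/fluorescein emission ratio.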
Sequence of cSrc (P12931 whole entry, looked up): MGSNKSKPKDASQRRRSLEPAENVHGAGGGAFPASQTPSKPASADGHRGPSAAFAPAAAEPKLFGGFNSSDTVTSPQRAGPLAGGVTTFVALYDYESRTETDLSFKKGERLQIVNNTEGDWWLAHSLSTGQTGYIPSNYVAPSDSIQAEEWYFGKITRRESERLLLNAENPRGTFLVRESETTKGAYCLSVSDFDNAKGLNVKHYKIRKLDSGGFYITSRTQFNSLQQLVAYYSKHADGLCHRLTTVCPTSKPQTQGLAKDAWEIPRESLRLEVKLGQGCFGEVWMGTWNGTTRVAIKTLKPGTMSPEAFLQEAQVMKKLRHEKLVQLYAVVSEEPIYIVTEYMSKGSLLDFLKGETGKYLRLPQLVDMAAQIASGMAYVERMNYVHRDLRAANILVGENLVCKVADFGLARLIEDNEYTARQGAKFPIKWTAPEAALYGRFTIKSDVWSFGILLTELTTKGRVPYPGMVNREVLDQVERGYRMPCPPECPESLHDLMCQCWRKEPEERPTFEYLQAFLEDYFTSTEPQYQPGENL

For a further data set, the target named is Syk (Homo sapiens (Human), UniProt P43405). Briefly: Syk enzyme inhibition (FRET, Z-LYTE). The data set is classed as biochemical. Summed up:
as §1

The next data set has as its system HRV16. Briefly: HRV16 induced CPE in MRC5 cells. The class given is cell-based, human rhinovirus. To be noted: MRC5 cells; screened at concentrations up to 0.32 ng/mL. As to the method:
The supernatants are aspirated, and then fresh media added followed by incubation for 4 days. Where appropriate, cells are pre-incubated with compound or DMSO for 2 hr, and the compounds and DMSO added again after washout of the virus.
Supernatants are aspirated and incubated with methylene blue solution (100 μL, 2% formaldehyde, 10% methanol and 0.175% Methylene Blue) for 2 hr at RT. […] The percentage inhibition for each well is calculated. The IC50 value is calculated from the concentration-response curve generated by the serial dilutions of the test compounds.

What is called IC50 is the concentration needed to halve the response being measured. As for `COc1ccc(-n2nc(C(C)(C)C)cc2NC(=O)Nc2ccc(Oc3ccnc(Nc4ccc5[nH]ncc5c4)n3)c3ccccc23)cn1` [Example 13, 1-(4-((2-((1H-Indazol-5-yl)amino)pyrimidin-4-yl)oxy)naphthalen-1-yl)-3-(3-(tert-butyl)-1-(6-methoxypyridin-3-yl)-1H-pyrazol-5-yl)urea], the “MTT Assay Cell viability at time point in d-U937 cells 4 h” value in the data set with d-U937 cells was “−ve (−ve and +ve indicate that the value is below and above respectively, the no significant effect threshold, defined as 30% inhibition at 1 μg/mL at the time point indicated.)”. Also, the “MTT Assay Cell viability at time point in d-U937 cells 24 h” value with d-U937 cells is “−ve (−ve and +ve indicate that the value is below and above respectively, the no significant effect threshold, defined as 30% inhibition at 1 μg/mL at the time point indicated.)”. Further, the IC50 was 2.4 nM in data set [1]; 30 nM against p38 MAPKα; over 1560 nM against GSK3α; 0.5 nM in [3]; 3 nM against cSrc; 8 nM against Syk. In [2], the EC50 amounted to 1.6 nM. Further, in data set [4], the “% Inhibition of neutrophil accumulation in BAL” value was 50%. Besides, in [4], the “Neutrophil numbers in BAL (+/−SEM)” value is on record as 8.5 ± 1.4 ×10^5/mL.

Regarding `CC(C)(C)c1cc(NC(=O)Nc2ccc(Oc3ccnc(Nc4ccc5[nH]ncc5c4)n3)c3ccccc23)n(-c2ccc(=O)n(CCN3CCOCC3)c2)n1` [Example 88, 1-(4-((2-((1H-indazol-5-yl)amino)pyrimidin-4-yl)oxy)naphthalen-1-yl)-3-(3-(tert-butyl)-1-(1-(2-morpholinoethyl)-6-oxo-1,6-dihydropyridin-3-yl)-1H-pyrazol-5-yl)urea], in the data set on d-U937 cells, the “MTT Assay Cell viability at time point in d-U937 cells 4 h” value was “−ve (−ve and +ve indicate that the value is below and above respectively, the no significant effect threshold, defined as 30% inhibition at 1 μg/mL at the time point indicated.)”. Further, the “MTT Assay Cell viability at time point in d-U937 cells 24 h” value with d-U937 cells is “−ve (−ve and +ve indicate that the value is below and above respectively, the no significant effect threshold, defined as 30% inhibition at 1 μg/mL at the time point indicated.)”. Also, the IC50 is 35.9 nM in data set [1]; 32 nM on p38 MAPKα; 2430 nM on GSK3α; 153 nM in data set [3]; 3 nM against cSrc; 10 nM at Syk. Besides, in data set [2], the EC50 worked out at 18.8 nM. In the data set with HRV16, the “HRV induced CPE in MRC5 Cells % Inhibition Observed” value is 75%.

For the molecule `Cc1ccc(-n2nc(C(C)(C)C)cc2NC(=O)Nc2ccc(Oc3ccnc(Nc4ccc5onc(N)c5c4)n3)c3ccccc23)cc1` [Example 5, 1-(4-((2-((3-Aminobenzo[d]isoxazol-5-yl)amino)pyrimidin-4-yl)oxy)naphthalen-1-yl)-3-(3-(tert-butyl)-1-(p-tolyl)-1H-pyrazol-5-yl)urea], in the data set on d-U937 cells, the “MTT Assay Cell viability at time point in d-U937 cells 4 h” value was “−ve (−ve and +ve indicate that the value is below and above respectively, the no significant effect threshold, defined as 30% inhibition at 1 μg/mL at the time point indicated.)”. Besides, the “MTT Assay Cell viability at time point in d-U937 cells 24 h” value in the data set with d-U937 cells is “−ve (−ve and +ve indicate that the value is below and above respectively, the no significant effect threshold, defined as 30% inhibition at 1 μg/mL at the time point indicated.)”. Besides, the IC50 was 0.6 nM in data set [1]; 81 nM on p38 MAPKα; over 1560 nM on GSK3α; 1.7 nM in data set [3]; over 1560 nM against cSrc; 49 nM at Syk. The EC50 in [2] came to 1.1 nM. In the data set on HRV16, the “HRV induced CPE in MRC5 Cells % Inhibition Observed” value amounted to 100%.

Consider `CC(C)(C)c1cc(NC(=O)Nc2ccc(Oc3ccnc(Nc4ccc5[nH]ncc5c4)n3)c3ccccc23)n(-c2ccc(OCCN3CCOCC3)nc2)n1` [Example 15, 1-(4-((2-((1H-Indazol-5-yl)amino)pyrimidin-4-yl)oxy)naphthalen-1-yl)-3-(3-(tert-butyl)-1-(6-(2-morpholinoethoxy)pyridin-3-yl)-1H-pyrazol-5-yl)urea], for which the “MTT Assay Cell viability at time point in d-U937 cells 4 h” value with d-U937 cells is “−ve (−ve and +ve indicate that the value is below and above respectively, the no significant effect threshold, defined as 30% inhibition at 1 μg/mL at the time point indicated.)”. For the same molecule, the “MTT Assay Cell viability at time point in d-U937 cells 24 h” value in the data set with d-U937 cells is “−ve (−ve and +ve indicate that the value is below and above respectively, the no significant effect threshold, defined as 30% inhibition at 1 μg/mL at the time point indicated.)”. The IC50 was 2.1 nM in data set [1]; 22 nM against p38 MAPKα; 1420 nM against GSK3α; 1.6 nM in [3]; under 1 nM against cSrc; 7 nM on Syk. In addition, the EC50 in data set [2] is 1.6 nM. Moreover, in the data set with HRV16, the “HRV induced CPE in MRC5 Cells % Inhibition Observed” value stood at 56%.

On to `COc1ccc(-n2nc(C(C)(C)C)cc2NC(=O)Nc2ccc(Oc3ccnc(Nc4cc(C)c5[nH]ncc5c4)n3)c3ccccc23)cc1` [Example 42, 1-(3-(tert-butyl)-1-(4-methoxyphenyl)-1H-pyrazol-5-yl)-3-(4-((2-((7-methyl-1H-indazol-5-yl)amino)pyrimidin-4-yl)oxy)naphthalen-1-yl)urea], for which the “MTT Assay Cell viability at time point in d-U937 cells 4 h” value in the data set on d-U937 cells was “−ve (−ve and +ve indicate that the value is below and above respectively, the no significant effect threshold, defined as 30% inhibition at 1 μg/mL at the time point indicated.)”. Moreover, the “MTT Assay Cell viability at time point in d-U937 cells 24 h” value in the data set on d-U937 cells is “+ve (−ve and +ve indicate that the value is below and above respectively, the no significant effect threshold, defined as 30% inhibition at 1 μg/mL at the time point indicated.)”. Besides, the IC50 in data set [1] was 1.4 nM; on p38 MAPKα, 67 nM; against GSK3α it was over 1530 nM; in data set [3] it was 1.4 nM; at cSrc, 5 nM; against Syk, 5 nM. For the same molecule, in [2], the EC50 was 1.7 nM. Further, the “% Inhibition of neutrophil accumulation in BAL” value in data set [4] turned out to be 50%. Also, the “Neutrophil numbers in BAL (+/−SEM)” value in data set [4] is given as 8.5 ± 1.5 ×10^5/mL.

For the molecule `Cc1ccc(-n2nc(C(C)(C)C)cc2NC(=O)Nc2ccc(Oc3ccnc(Nc4ccc5[nH]ccc5c4)n3)c3ccccc23)cc1` [Example 1, 1-(4-((2-((1H-Indol-5-yl)amino)pyrimidin-4-yl)oxy)naphthalen-1-yl)-3-(3-(tert-butyl)-1-(p-tolyl)-1H-pyrazol-5-yl)urea], the “MTT Assay Cell viability at time point in d-U937 cells 4 h” value with d-U937 cells was “−ve (−ve and +ve indicate that the value is below and above respectively, the no significant effect threshold, defined as 30% inhibition at 1 μg/mL at the time point indicated.)”. Besides, the “MTT Assay Cell viability at time point in d-U937 cells 24 h” value with d-U937 cells is “−ve (−ve and +ve indicate that the value is below and above respectively, the no significant effect threshold, defined as 30% inhibition at 1 μg/mL at the time point indicated.)”. Also, the half-maximal inhibitory concentration (IC50) is 4.7 nM in data set [1]; 187 nM against p38 MAPKα; over 1610 nM at GSK3α; 2.2 nM in [3]; 21 nM against cSrc; 50 nM against Syk. Also, the EC50 in data set [2] amounted to 1.7 nM.
